Results: PMC10480608 (Heliyon, 2023)

Key:
[1] = test system: MCF-7 (human breast adenocarcinoma); test: MTT cytotoxicity assay, MCF-7; format: cell-based; conditions: Homo sapiens, MCF7, 72 h, read-out: IC50 ± SD, MCF7
[2] = test system: normal human dermal/fibroblasts; test: MTT cytotoxicity assay, normal fibroblasts; format: cell-based; conditions: Homo sapiens, Fibroblast, 72 h, read-out: IC50 ± SD, Fibro dental
[3] = test system: HepG2 (hepatocellular carcinoma); test: MTT cytotoxicity assay, HepG2; format: cell-based, human; conditions: Homo sapiens, HepG2, 72 h, read-out: IC50 ± SD, HEPG-2
[4] = test system: PC3 (human prostate carcinoma); test: MTT cytotoxicity assay, PC3; format: cell-based; conditions: 72 h, read-out: IC50 ± SD, PC-3
[5] = test system: MDA-231 breast cancer cells; test: MTT cytotoxicity assay, MDA-231; format: cell-based, human; conditions: Homo sapiens, MDA-MB-231, read-out: IC50 ± SD, MDA-231
[6] = test system: DU145 prostate cancer cells; test: MTT cytotoxicity assay, DU145; format: cell-based, human; conditions: Homo sapiens, DU-145, read-out: IC50 ± SD, DU145

Row | Structure (SMILES) | IC50 [1] [µM] | IC50 [2] [µM] | IC50 [3] [µM] | IC50 [4] [µM] | IC50 [5] [µM] | IC50 [6] [µM]
1 | Cc1nc([N+](=O)[O-])cn1Cc1ccccc1 [Compound 2, N1-benzyl-2-methyl-4-nitroimidazole] | 68 ± 20 | – | – | – | – | –
2 | Cc1nc([N+](=O)[O-])c(Br)n1Cc1ccccc1 [Compound 3, 5-bromo-N1-benzyl-2-methyl-4-nitroimidazole] | – | > 500 | > 500 | > 500 | – | –
3 | C#CCN1CCN(c2c([N+](=O)[O-])nc(C)n2Cc2ccccc2)CC1 [Compound 5, 1-(N1-benzyl-2-methyl-4-nitro-imidazole-5-yl)-4-(prop-2-yn-1-yl)piperazine] | 84 ± 2 | > 500 | – | – | – | –
4 | Cc1nc([N+](=O)[O-])c(N2CCN(Cc3cn(Cc4ccccc4)nn3)CC2)n1Cc1ccccc1 [Compound 9a, 1-((N1-benzyl-1H-1,2,3-triazol-4-yl)methyl)-4-(N1-benzyl-2-methyl-4-nitro-imidazole-5-yl)piperazine] | 55 ± 40 | > 500 | – | – | – | –
5 | Cc1nc([N+](=O)[O-])c(N2CCN(Cc3cn(Cc4ccc(Br)cc4)nn3)CC2)n1Cc1ccccc1 [Compound 9b, 1-(N1-benzyl-2-methyl-4-nitro-imidazole-5-yl)-4-((N1-(4-bromobenzyl)-1H-1,2,3-triazol-4-yl)methyl)piperazine] | 79 ± 21 | > 500 | – | – | – | –
6 | Cc1nc([N+](=O)[O-])c(N2CCN(Cc3cn(Cc4ccc(F)cc4)nn3)CC2)n1Cc1ccccc1 [Compound 9c, 1-(N1-benzyl-2-methyl-4-nitro-imidazole-5-yl)-4-((N1-(4-fluorobenzyl)-1H-1,2,3-triazol-4-yl)methyl)piperazine] | 24 ± 1.9 | > 500 | > 500 | > 500 | – | –
7 | Cc1nc([N+](=O)[O-])c(N2CCN(Cc3cn(Cc4cccc([N+](=O)[O-])c4)nn3)CC2)n1Cc1ccccc1 [Compound 9d, 1-(N1-benzyl-2-methyl-4-nitro-imidazole-5-yl)-4-((N1-(3-nitrobenzyl)-1H-1,2,3-triazol-4-yl)methyl)piperazine] | 40 ± 15 | – | – | – | – | –
8 | Cc1cccc(Cn2cc(CN3CCN(c4c([N+](=O)[O-])nc(C)n4Cc4ccccc4)CC3)nn2)c1 [Compound 9e, 1-(N1-benzyl-2-methyl-4-nitro-imidazole-5-yl)-4-((N1-(3-methylbenzyl)-1H-1,2,3-triazol-4-yl)methyl)piperazine] | 79 ± 21 | > 500 | > 500 | > 500 | – | –
9 | Cc1nc([N+](=O)[O-])c(N2CCN(Cc3cn(Cc4cccc(Br)c4)nn3)CC2)n1Cc1ccccc1 [Compound 9f, 1-(N1-benzyl-2-methyl-4-nitro-imidazole-5-yl)-4-((N1-(3-bromobenzyl)-1H-1,2,3-triazol-4-yl)methyl)piperazine] | 53 ± 60 | – | – | – | – | –
10 | Cc1nc([N+](=O)[O-])c(N2CCN(Cc3cn(Cc4ccccc4[N+](=O)[O-])nn3)CC2)n1Cc1ccccc1 [Compound 9h, 1-(N1-benzyl-2-methyl-4-nitro-imidazole-5-yl)-4-((N1-(2-nitrobenzyl)-1H-1,2,3-triazol-4-yl)methyl)piperazine] | 48 ± 4 | > 500 | – | – | – | –
11 | Cc1nc([N+](=O)[O-])c(N2CCN(Cc3cn(Cc4ccccc4Br)nn3)CC2)n1Cc1ccccc1 [Compound 9i, 1-(N1-benzyl-2-methyl-4-nitro-imidazole-5-yl)-4-((N1-(2-bromobenzyl)-1H-1,2,3-triazol-4-yl)methyl)piperazine] | 106 ± 12.3 | > 500 | > 500 | > 500 | – | –
12 | Cc1nc([N+](=O)[O-])c(N2CCN(Cc3cn(Cc4ccccc4F)nn3)CC2)n1Cc1ccccc1 [Compound 9j, 1-(N1-benzyl-2-methyl-4-nitro-imidazole-5-yl)-4-((N1-(2-fluorobenzyl)-1H-1,2,3-triazol-4-yl)methyl)piperazine] | 151 ± 20 | > 500 | > 500 | > 500 | – | –
13 | Cc1nc([N+](=O)[O-])c(N2CCN(Cc3cn(CC(=O)c4ccccc4)nn3)CC2)n1Cc1ccccc1 [Compound 10a, 2-(4-((4-(1-benzyl-2-methyl-4-nitro-1H-imidazole-5-yl)piperazin-1-yl)methyl)-1H-1,2,3-triazol-1-yl)-1-phenylethanone] | 112 ± 30 | – | – | – | 1.15 ± 0.5 | 3.16 ± 0.03
14 | Cc1cccc(-n2cc(CN3CCN(c4c([N+](=O)[O-])nc(C)n4Cc4ccccc4)CC3)nn2)c1 [Compound 11 m, 1-(N1-benzyl-2-methyl-4-nitro-1H-imidazole-5-yl)-4-((N1-(m-tolyl)-1H-1,2,3-triazol-4-yl)methyl)piperazine] | 161 ± 16 | > 500 | > 500 | > 500 | – | –
15 | Cc1nc([N+](=O)[O-])c(N2CCN(Cc3cn(-c4ccc(Br)cc4)nn3)CC2)n1Cc1ccccc1 [Compound 11a, 1-(N1-benzyl-2-methyl-4-nitro-1H-imidazole-5-yl)-4-((N1-(4-bromophenyl)-1H-1,2,3-triazol-4-yl)methyl)piperazine] | – | > 500 | > 500 | > 500 | – | –
16 | CSc1ccccc1-n1cc(CN2CCN(c3c([N+](=O)[O-])nc(C)n3Cc3ccccc3)CC2)nn1 [Compound 11b, 1-(N1-benzyl-2-methyl-4-nitro-1H-imidazole-5-yl)-4-((N1-(2-(methylthio)phenyl)-1H-1,2,3-triazol-4-yl)methyl)piperazine] | 136 ± 60 | – | – | – | – | –
17 | CCOc1ccccc1-n1cc(CN2CCN(c3c([N+](=O)[O-])nc(C)n3Cc3ccccc3)CC2)nn1 [Compound 11c, 1-(N1-benzyl-2-methyl-4-nitro-1H-imidazole-5-yl)-4-((N1-(2-ethoxyphenyl)-1H-1,2,3-triazol-4-yl)methyl)piperazine] | 399 ± 79 | – | – | – | – | –
18 | Cc1nc([N+](=O)[O-])c(N2CCN(Cc3cn(-c4ccccc4)nn3)CC2)n1Cc1ccccc1 [Compound 11d, 1-(N1-benzyl-2-methyl-4-nitro-1H-imidazole-5-yl)-4-((N1-phenyl-1H-1,2,3-triazol-4-yl)methyl)piperazine] | 312 ± 65 | – | – | – | – | –
19 | Cc1ccc(-n2cc(CN3CCN(c4c([N+](=O)[O-])nc(C)n4Cc4ccccc4)CC3)nn2)cc1 [Compound 11e, 1-(N1-benzyl-2-methyl-4-nitro-1H-imidazole-5-yl)-4-((N1-(p-tolyl)-1H-1,2,3-triazol-4-yl)methyl)piperazine] | 219 ± 12 | – | – | – | – | –
20 | COc1ccc(-n2cc(CN3CCN(c4c([N+](=O)[O-])nc(C)n4Cc4ccccc4)CC3)nn2)cc1 [Compound 11f, 1-(N1-benzyl-2-methyl-4-nitro-1H-imidazole-5-yl)-4-((N1-(4-methoxyphenyl)-1H-1,2,3-triazol-4-yl)methyl)piperazine] | 251 ± 71 | > 500 | – | – | – | –
21 | Cc1ccccc1-n1cc(CN2CCN(c3c([N+](=O)[O-])nc(C)n3Cc3ccccc3)CC2)nn1 [Compound 11g, 1-(N1-benzyl-2-methyl-4-nitro-1H-imidazole-5-yl)-4-((N1-(o-tolyl)-1H-1,2,3-triazol-4-yl)methyl)piperazine] | 183 ± 10 | – | – | – | – | –
22 | CCc1ccccc1-n1cc(CN2CCN(c3c([N+](=O)[O-])nc(C)n3Cc3ccccc3)CC2)nn1 [Compound 11h, 1-(N1-benzyl-2-methyl-4-nitro-1H-imidazole-5-yl)-4-((N1-(2-ethylphenyl)-1H-1,2,3-triazol-4-yl)methyl)piperazine] | 88 ± 37 | – | – | – | – | –
23 | Cc1nc([N+](=O)[O-])c(N2CCN(Cc3cn(-c4ccccc4[N+](=O)[O-])nn3)CC2)n1Cc1ccccc1 [Compound 11i, 1-(N1-benzyl-2-methyl-4-nitro-1H-imidazole-5-yl)-4-((N1-(2-nitrophenyl)-1H-1,2,3-triazol-4-yl)methyl)piperazine] | 185 ± 33 | > 500 | – | – | – | –
24 | Cc1nc([N+](=O)[O-])c(N2CCN(Cc3cn(-c4ccc(Cl)cc4)nn3)CC2)n1Cc1ccccc1 [Compound 11j, 1-(N1-benzyl-2-methyl-4-nitro-1H-imidazole-5-yl)-4-((N1-(4-chlorophenyl)-1H-1,2,3-triazol-4-yl)methyl)piperazine] | 279 ± 20 | > 500 | > 500 | > 500 | – | –
25 | Cc1nc([N+](=O)[O-])c(N2CCN(Cc3cn(-c4ccc([N+](=O)[O-])cc4)nn3)CC2)n1Cc1ccccc1 [Compound 11k, 1-(N1-benzyl-2-methyl-4-nitro-1H-imidazole-5-yl)-4-((N1-(4-nitrophenyl)-1H-1,2,3-triazol-4-yl)methyl)piperazine] | 671 ± 140 | – | – | – | – | –
26 | COc1cccc(-n2cc(CN3CCN(c4c([N+](=O)[O-])nc(C)n4Cc4ccccc4)CC3)nn2)c1 [Compound 11l, 1-(N1-benzyl-2-methyl-4-nitro-1H-imidazole-5-yl)-4-((N1-(3-methoxyphenyl)-1H-1,2,3-triazol-4-yl)methyl)piperazine] | 198 ± 10 | – | – | – | – | –
27 | Cc1nc([N+](=O)[O-])c(N2CCN(Cc3cn(-c4cccc(Cl)c4)nn3)CC2)n1Cc1ccccc1 [Compound 11n, 1-(N1-benzyl-2-methyl-4-nitro-1H-imidazole-5-yl)-4-((N1-(3-chlorophenyl)-1H-1,2,3-triazol-4-yl)methyl)piperazine] | 155 ± 70 | > 500 | – | – | – | –
28 | Cc1nc([N+](=O)[O-])c(N2CCN(Cc3cn(-c4cccc5c4CCCC5)nn3)CC2)n1Cc1ccccc1 [Compound 11o, 1-(N1-benzyl-2-methyl-4-nitro-1H-imidazole-5-yl)-4-((N1-(5,6,7,8-tetrahydronaphthalen-1-yl)-1H-1,2,3-triazol-4-yl)methyl)piperazine] | 131 ± 30 | > 500 | – | > 500 | – | –
29 | Cc1nc([N+](=O)[O-])c(N2CCN(Cc3cn(-c4cccc5ccccc45)nn3)CC2)n1Cc1ccccc1 [Compound 11q, 1-(N1-benzyl-2-methyl-4-nitro-1H-imidazole-5-yl)-4-((N1-(naphthalen-1-yl)-1H-1,2,3-triazol-4-yl)methyl)piperazine] | 270 ± 40 | – | – | – | – | –
